Results from patent publication US8507538B2, “Selective heterocyclic sphingosine 1 phosphate receptor modulators” (Receptos, Inc., priority 2009, dated 2013).
Counter-ions that a name gives are not always drawn.

target: S1P1/EDG1 (Homo sapiens, UniProt P21453); experiment: S1P1 CRE-bla CHOK1 reporter assay (inhibition of Forskolin induced cAMP); format: cell-based; settings: agonist activity range, Table 2; read-out: S1P1 ACTIVITY
From the text: A mammalian expression plasmid containing S1P1/EDG1 cloned into pcDNA3.1 was purchased from Missouri S&T cDNA Resource Centre. The nucleotide and amino acid sequence of human S1P1/EDG1 are published in Hla and Maciag (J Biol Chem, 265(1990), 9308-9313). S1P1/pcDNA3.1 was transfected into the CRE-bla CHO K1 (Invitrogen) cell line, and stable single cell clones were selected using standard techniques. Expression of functional SIP1/EDG1 receptor was confirmed by cell surface FACS with a S1P1 antibody (R&D Systems, clone 218713) and S1P-mediated inhibition of Forskolin induced cAMP.
Cells were seeded into 384-well black wall/clear bottom plates at 10^4 cells/well/19.5 μl assay media (DMEM-phenol free, 0.5% charcoal/dextran stripped serum, 2 mM glutamine, 0.1 mM NEAA, 1 mM Na-Pyruvate, 25 mM Hepes) and incubated for 18 hrs at 37° C. in 5% CO2. Dose response curves (10-point) were generated in 10 mM Hepes, 0.1% Pluronic F127, in the presence of Forskolin. Cells were treated with 0.5 μl compound in the presence of 2 μM Forskolin for 4 hrs at 37° C. The FRET-based β-lactamase fluorescent substrate (LiveBLAzer™ FRET B/G Loading Kit CC4-AM; Invitrogen) was prepared according to manufacturer's directions, and incubated with cells for 2 hrs at room temperature. Plates were read at Ex:410/Em:458 and Ex:410/Em:522, and the response ratio determined. Data was analyzed by non-linear regression to determine the EC50 for inhibition of Forskolin induced cAMP.

S1P1/EDG1, sequence (P21453 whole entry): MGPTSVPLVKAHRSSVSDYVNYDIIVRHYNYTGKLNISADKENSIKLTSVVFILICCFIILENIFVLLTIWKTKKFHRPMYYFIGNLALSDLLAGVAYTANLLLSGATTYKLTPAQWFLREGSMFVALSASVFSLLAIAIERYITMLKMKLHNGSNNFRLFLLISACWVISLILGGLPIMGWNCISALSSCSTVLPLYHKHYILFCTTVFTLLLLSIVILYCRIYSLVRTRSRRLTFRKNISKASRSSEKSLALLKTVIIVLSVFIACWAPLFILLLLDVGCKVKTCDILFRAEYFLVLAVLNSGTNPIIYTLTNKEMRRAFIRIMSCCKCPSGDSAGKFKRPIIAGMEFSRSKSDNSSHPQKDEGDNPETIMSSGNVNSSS

SMILES | EC50
CC(C)Oc1ccc(-c2nnc(-c3cccc4c3CCC4O)s2)cc1C#N (stereo in doubt) [Compound 2, (R)-5-(5-(1-hydroxy-2,3-dihydro-1H-inden-4-yl) -1,3,4-thiadiazol-2-yl)-2-isopropoxybenzonitrile] | 0.05 to 0.5 nM
CC(C)Oc1ccc(-c2nnc(-c3cccc4c3CCC4N)s2)cc1C#N (stereo in doubt) [Compound 5, (R)-5-(5-(1-amino-2,3-dihydro-1H-inden-4-yl)-1,3,4-thiadiazol-2-yl) -2 isopropoxybenzonitrile hydrochloride] | 0.5 to 5 nM
CC(C)Oc1ccc(-c2nnc(-c3cccc4c3CCC4NCCO)s2)cc1C#N (stereo in doubt) [Compound 17, (R)-5-(5-(1-((2-hydroxyethyl)amino)-2,3-dihydro-1H-inden-4-yl)-1,3,4-thiadiazol-2-yl)-2-isopropoxybenzonitrile] | 0.05 to 0.5 nM
CC(C)Oc1ccc(-c2nnc(-c3cccc4c3CCC4NCC(=O)N(C)C)s2)cc1C#N (stereo in doubt) [Compound 22, (R)-2-((4-(5-(3-cyano-4-isopropoxyphenyl)-1,3,4-thiadiazol-2-yl)-2,3-dihydro-1H-inden-1-yl)amino)-N,N-dimethylacetamide hydrochloride] | 0.05 to 0.5 nM
CC(C)Oc1ccc(-c2nnc(-c3cccc4c3CCC4NCC(=O)O)s2)cc1C#N (stereo in doubt) [Compound 27, (R)-2-((4-(5-(3-cyano-4-isopropoxyphenyl)-1,3,4-thiadiazol-2-yl)-2,3-dihydro-1H-inden-1-yl)amino)acetic acid] | 0.05 to 0.5 nM
CC(C)Oc1ccc(-c2nnc(-c3cccc4c3CCC4NCc3ncc[nH]3)s2)cc1C#N (stereo in doubt) [Compound 29, (R)-5-(5-(1-(((1H-imidazol-2-yl)methyl)amino)-2,3-dihydro-1H-inden-4-yl)-1,3,4-thiadiazol-2-yl) -2-isopropoxybenzonitrile] | 0.05 to 0.5 nM
CC(C)Oc1ccc(-c2nnc(-c3cccc4c3CCC4NCCS(C)(=O)=O)s2)cc1C#N (stereo in doubt) [Compound 32, (R)-2-isopropoxy-5-(5-(1-((2-(methylsulfonyl)ethyl)amino)-2,3-dihydro-1H-inden-4-yl)-1,3,4-thiadiazol-2-yl)benzonitrile] | < 0.05 nM
CC(C)Oc1ccc(-c2nnc(-c3cccc4c3CCC4NS(C)(=O)=O)s2)cc1C#N (stereo in doubt) [Compound 34, (R)-N-(4-(5-(3-cyano-4-isopropoxyphenyl)-1,3,4-thiadiazol-2-yl)-2,3-dihydro-1H-inden-1-yl)methanesulfonamide] | 0.05 to 0.5 nM
CC(C)Oc1ccc(-c2nnc(-c3cccc4c3CC[C@@H]4NS(=O)(=O)CCN3CCC(O)C3)s2)cc1C#N (stereo in doubt) [Compound 37, N-((S)-4-(5-(3-cyano-4-isopropoxyphenyl)-1,3,4-thiadiazol-2-yl)-2,3-dihydro-1H-inden-1-yl)-2-((R)-3-hydroxypyrrolidin-1-yl)ethanesulfonamide] | 0.5 to 5 nM
CC(C)Oc1ccc(-c2nnc(-c3cccc4c3CC[C@H]4NS(=O)(=O)CCN3CC[C@@H](O)C3)s2)cc1C#N (stereo in doubt) [Compound 38, N-((R)-4-(5-(3-cyano-4-isopropoxyphenyl)-1,3,4-thiadiazol-2-yl)-2,3-dihydro-1H -inden-1-yl)-2-((R)-3-hydroxypyrrolidin-1-yl)ethanesulfonamide] | 0.5 to 5 nM
CC(C)Oc1ccc(-c2nnc(-c3cccc4c3CCC4NS(=O)(=O)CC(=O)O)s2)cc1C#N (stereo in doubt) [Compound 41, (R)-2-(N-(4-(5-(3-cyano-4-isopropoxyphenyl)-1,3,4-thiadiazol-2-yl)-2,3-dihydro-1H-inden-1-yl)sulfamoyl)acetic acid] | < 0.05 nM
CC(C)Oc1ccc(-c2nnc(-c3cccc4c3CCC4NS(N)(=O)=O)s2)cc1C#N (stereo in doubt) [Compound 48, (R)-N-(4-(5-(3-cyano-4-isopropoxyphenyl)-1,3,4-thiadiazol-2-yl)-2,3-dihydro-1H-inden-1-yl)sulfamide] | < 0.05 nM
CC(C)Oc1ccc(-c2nnc(-c3cccc4c3CCC4NC(=O)N3CC[C@H](N(C)C)C3)s2)cc1C#N (stereo in doubt) [Compound 57, (S)-N-((R)-4-(5-(3-cyano-4-isopropoxyphenyl)-1,3,4-thiadiazol-2-yl)-2,3-dihydro-1H-inden-1-yl)-3-(dimethylamino)pyrrolidine-1-carboxamide] | 0.5 to 5 nM
CC(C)Oc1ccc(-c2ncc(-c3cccc4c3CCC4O)s2)cc1C#N (stereo in doubt) [Compound 69, (R)-5-(5-(1-hydroxy-2,3-dihydro-1H-inden-4-yl)thiazol-2-yl)-2-isopropoxy benzonitrile] | 0.05 to 0.5 nM
CC(C)Oc1ccc(-c2ncc(-c3cccc4c3CCC4NCCO)s2)cc1C#N (stereo in doubt) [Compound 91, (R)-5-(5-(1-((2-hydroxyethyl)amino)-2,3-dihydro-1H-inden-4-yl)thiazol-2-yl) -2-isopropoxybenzonitrile] | 0.5 to 5 nM
CC(C)Oc1ccc(-c2ncc(-c3cccc4c3CCC4NCC(=O)O)s2)cc1C#N (stereo in doubt) [Compound 96, (R)-2-((4-(2-(3-cyano-4-isopropoxyphenyl)thiazol-5-yl)-2,3-dihydro-1H-inden-1-yl)amino)acetic acid] | 0.05 to 0.5 nM
CC(C)Oc1ccc(-c2ncc(-c3cccc4c3CCC4NCC(=O)N3CC[C@H](O)C3)s2)cc1C#N (stereo in doubt) [Compound 102, 5-(5-((R)-1-((2-((S)-3-hydroxypyrrolidin-1-yl)-2-oxoethyl)amino)-2,3-dihydro-1H-inden-4-yl)thiazol-2-yl)-2-isopropoxybenzonitrile hydrochloride] | 0.05 to 0.5 nM
CC(C)Oc1ccc(-c2ncc(-c3cccc4c3CCC4NCc3ncc[nH]3)s2)cc1C#N (stereo in doubt) [Compound 109, (R)-5-(5-(1-(((1H-imidazol-2-yl)methyl)amino)-2,3-dihydro-1H-inden-4-yl)thiazol-2-yl)-2-isopropoxybenzonitrile] | 0.5 to 5 nM
CC(C)Oc1ccc(-c2ncc(-c3cccc4c3CCC4NS(C)(=O)=O)s2)cc1C#N (stereo in doubt) [Compound 111, (R)-N-(4-(2-(3-cyano-4-isopropoxyphenyl)thiazol-5-yl)-2,3-dihydro-1H-inden-1-yl)methanesulfonamide] | 0.05 to 0.5 nM
CC(C)Oc1ccc(-c2ncc(-c3cccc4c3CC[C@@H]4NS(=O)(=O)CCN3CCCC(O)C3)s2)cc1C#N (stereo in doubt) [Compound 141, N-((S)-4-(2-(3-cyano-4-isopropoxyphenyl)thiazol-5-yl)-2,3-dihydro-1H-inden-1-yl)-2-((R)-3-hydroxypiperidin-1-yl)ethanesulfonamide] | 0.5 to 5 nM
CC(C)Oc1ccc(-c2ncc(-c3cccc4c3CC[C@H]4NS(=O)(=O)CCN3CCC[C@@H](O)C3)s2)cc1C#N (stereo in doubt) [Compound 143, N-((R)-4-(2-(3-cyano-4-isopropoxyphenyl)thiazol-5-yl)-2,3-dihydro-1H-inden-1-yl)-2-((R)-3-hydroxypiperidin-1-yl)ethanesulfonamide] | 0.5 to 5 nM
COC(=O)CS(=O)(=O)NC1CCc2c(-c3cnc(-c4ccc(OC(C)C)c(C#N)c4)s3)cccc21 (stereo in doubt) [Compound 154, (R)-methyl 2-(N-(4-(2-(3-cyano-4-isopropoxyphenyl)thiazol-5-yl)-2,3-dihydro-1H-inden-1-yl)sulfamoyl)acetate] | 0.05 to 0.5 nM
CC(C)Oc1ccc(-c2ncc(-c3cccc4c3CCC4NS(=O)(=O)CC(=O)O)s2)cc1C#N (stereo in doubt) [Compound 158, (R)-2-(N-(4-(2-(3-cyano-4-isopropoxyphenyl)thiazol-5-yl)-2,3-dihydro-1H-inden-1-yl)sulfamoyl)acetic acid] | < 0.05 nM
CC(C)Oc1ccc(-c2ncc(-c3cccc4c3CCC4NS(=O)(=O)CC(=O)N3CCOCC3)s2)cc1C#N (stereo in doubt) [Compound 162, (R)—N-(4-(2-(3-cyano-4-isopropoxyphenyl)thiazol-5-yl)-2,3-dihydro-1H-inden-1-yl)-2-morpholino-2-oxoethanesulfonamide] | 0.05 to 0.5 nM
CC(C)Oc1ccc(-c2ncc(-c3cccc4c3CCC4NS(=O)(=O)CCO)s2)cc1C#N (stereo in doubt) [Compound 164, (R)-N-(4-(2-(3-cyano-4-isopropoxyphenyl)thiazol-5-yl)-2,3-dihydro-1H-inden-1-yl)-2-hydroxyethanesulfonamide] | 0.05 to 0.5 nM
CC(C)Oc1ccc(-c2ncc(-c3cccc4c3CCC4NCCS(C)(=O)=O)s2)cc1C#N (stereo in doubt) [Compound 220, (R)-2-isopropoxy-5-(5-(1-((2-(methylsulfonyl)ethyl)amino)-2,3-dihydro-1H-inden-4-yl)thiazol-2-yl)benzonitrile] | 0.05 to 0.5 nM
CC(C)Oc1ccc(-c2nnc(-c3cccc4c3CC[C@@H]4O)s2)cc1C#N [Compound 1, (S)-5-(5-(1-hydroxy-2,3-dihydro-1H-inden-4-yl)-1,3,4-thiadiazol-2-yl)-2-isopropoxybenzonitrile] | 0.05 to 0.5 nM
CCOc1ccc(-c2nnc(-c3cccc4c3CCC4O)s2)cc1OCC (stereo not shown) [Compound 3] | 0.5 to 5 nM
